Results published in patent US6706664B1, “Benzoxazole compounds, process for the preparation thereof and herbicides” (UBE Industries, Ltd., priority 1999, dated 2004).

How the values were obtained:
Parameters in all cases: key: 0: normal development; 1: Less damaged; 2: Slightly damaged; 3: Moderately damaged; 4: Severely damaged; 5: All killed
[1] = test system: green foxtail; test: Soil treatment test for upland field; assay type: in vivo, Setaria viridis; settings: 500 g/ha, glass house 25° C., 3 weeks
Method in brief: (§1)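 Pre-emergence test: seeds sown in Ube alluvial soil in Wagner pots, soil surface sprayed with wettable powder in water with 0.05% surfactant at 500 g/ha. Plants kept in a glasshouse at average 25 °C for 3 weeks, then damage scored 0 (normal) to 5 (all killed).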

[2] = test system: young rice plant; test: Herbicidal test for paddy field; assay type: in vivo; settings: paddy field pot, 500 g/ha dropwise at 1.5 leaf stage of barnyardgrass, 3 weeks, rank vs non-treated
Method in brief: (§2)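 Ube alluvial soil in pots flooded to 3 cm water depth, sown with seeds or tubers. Wettable powder diluted in water with 0.05% surfactant was dripped onto the water at 500 g/ha when barnyardgrass reached the 1.5-leaf stage. After 3 weeks in a glasshouse at an average of 25° C, damage was scored 0 (normal) to 5 (all killed) against untreated pots.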

[3] = test system: monochoria; test: Herbicidal test for paddy field; assay type: in vivo, Monochoria vaginalis; settings: paddy field pot, 500 g/ha dropwise at 1.5 leaf stage of barnyardgrass, 3 weeks, rank vs non-treated
Method in brief: as §2

[4] = test system: corn; test: Soil treatment test for upland field; assay type: in vivo; settings: 500 g/ha, glass house 25° C., 3 weeks
Method in brief: as §1

[5] = test system: wheat; test: Soil treatment test for upland field; assay type: in vivo; settings: 500 g/ha, glass house 25° C., 3 weeks
Method in brief: as §1

[6] = test system: cotton; test: Soil treatment test for upland field; assay type: in vivo; settings: 500 g/ha, glass house 25° C., 3 weeks
Method in brief: as §1

[7] = test system: sugar beat; test: Soil treatment test for upland field; assay type: in vivo; settings: 500 g/ha, glass house 25° C., 3 weeks
Method in brief: as §1

[8] = test system: solgum; test: Soil treatment test for upland field; assay type: in vivo; settings: 500 g/ha, glass house 25° C., 3 weeks
Method in brief: as §1

[9] = test system: soybean; test: Soil treatment test for upland field; assay type: in vivo; settings: 500 g/ha, glass house 25° C., 3 weeks
Method in brief: as §1

[10] = test system: corn; test: Foliar spread test for upland field; assay type: in vivo; settings: foliar spray 500 ppm, 3 weeks, rank vs non-treated
Method in brief: (§3)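 Crops and weeds grown about 2 weeks in volcanic ash soil in a glasshouse, then sprayed with wettable-powder formulations diluted to 500 ppm in water with 0.5% surfactant. After 3 weeks at 25 °C, injury scored visually 0 (normal) to 5 (all killed).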

[11] = test system: wheat; test: Foliar spread test for upland field; assay type: in vivo; settings: foliar spray 500 ppm, 3 weeks, rank vs non-treated
Method in brief: as §3

[12] = test system: sugar beat; test: Foliar spread test for upland field; assay type: in vivo; settings: foliar spray 500 ppm, 3 weeks, rank vs non-treated
Method in brief: as §3

[13] = test system: solgum; test: Foliar spread test for upland field; assay type: in vivo; settings: foliar spray 500 ppm, 3 weeks, rank vs non-treated
Method in brief: as §3

[14] = test system: annual bluegrass; test: Soil treatment test for upland field; assay type: in vivo, Poa annua; settings: 500 g/ha, glass house 25° C., 3 weeks
Method in brief: as §1

[15] = test system: green foxtail; test: Foliar spread test for upland field; assay type: in vivo, Setaria viridis; settings: foliar spray 500 ppm, 3 weeks, rank vs non-treated
Method in brief: (§4)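 Post-emergence foliar spray, 500 ppm (wettable powder in water + 0.5% surfactant), on ~2-week-old plants grown in volcanic ash soil; glasshouse, avg 25° C, 3 wk; visual damage score 0–5.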

[16] = test system: common lambsquartes; test: Soil treatment test for upland field; assay type: in vivo, Chenopodium album; settings: 500 g/ha, glass house 25° C., 3 weeks
Method in brief: as §1

[17] = test system: blackgrass; test: Foliar spread test for upland field; assay type: in vivo, Alopecurus aegualis; settings: foliar spray 500 ppm, 3 weeks, rank vs non-treated
Method in brief: as §4

[18] = test system: livid amaranth; test: Soil treatment test for upland field; assay type: in vivo, Amaranthus lividus; settings: 500 g/ha, glass house 25° C., 3 weeks
Method in brief: as §1

[19] = test system: morning glory; test: Foliar spread test for upland field; assay type: in vivo, Ipomoea spps.; settings: foliar spray 500 ppm, 3 weeks, rank vs non-treated
Method in brief: as §4

| Compound | Effects Green foxtail [1] | Effect Young rice plant [2] | Effect Monochoria [3] | Effects Corn [4] | Effects Wheat [5] | Effects Cotton [6] | Effects Sugar beat [7] | Effects Solgum [8] | Effects Soybean [9] | Effects Corn [10] | Effects Wheat [11] | Effects Sugar beat [12] | Effects Solgum [13] | Effects Annual bluegrass [14] | Effects Green foxtail [15] | Effects Common lambsquarters [16] | Effects Blackgrass [17] | Effects Livid amaranth [18] | Effects Morning glory [19] |
| --- | --- | --- | --- | --- | --- | --- | --- | --- | --- | --- | --- | --- | --- | --- | --- | --- | --- | --- | --- |
| CCC(Oc1cccc(C(F)(F)F)c1)c1nc2cc(F)ccc2o1 (stereo not drawn) [Compound 120] | 5 | 1 | 5 | 0 | 0 | 0 | 3 | 1 | 0 | 3 | 2 | 5 | 2 | 5 | 3 | 4 | 2 | 3 | 5 |
| CCC(Oc1cccc(C(F)(F)F)c1)c1nc2cc(C#N)ccc2o1 (stereo not drawn) [Compound 190] | 5 | 3 | 5 | 2 | 2 | 5 | 5 | 2 | 0 | 2 | 2 | 3 | 3 | 5 | 5 | 4 | 3 | 5 | 3 |
| CCC(Oc1cccc(C(F)(F)F)c1)c1nc2cc(Cl)c(C)cc2o1 (stereo not drawn) [Compound 339, 1-(5-chloro-6-methylbenzoxazol-2-yl)-1-(3-(trifluoromethyl)phenoxy)propane] | 5 | 1 | 5 | 1 | 1 | 0 | 4 | 1 | 1 | 2 | 1 | 3 | 1 | 5 | 2 | 4 | 2 | 5 | 2 |
| CCCC(Oc1ccc(F)c(C(F)(F)F)c1)c1nc2cc(C#N)c(Cl)cc2o1 (stereo not drawn) [Compound 533] | 5 | 2 | 4 | 0 | 1 | 0 | 5 | 0 | 0 | 2 | 2 | 5 | 2 | 4 | 4 | 5 | 3 | 5 | 5 |
| CCC(Oc1ccc(F)c(C(F)(F)F)c1)c1nc2cc(F)c(F)cc2o1 (stereo not drawn) [Compound 284] | 5 | 2 | 5 | 2 | 2 | 1 | 5 | 2 | 2 | 3 | 2 | 4 | 3 | 5 | 4 | 4 | 2 | 5 | 3 |
| CCC(Oc1ccc(F)c(C(F)(F)F)c1)c1nc2cc(Cl)c(C)cc2o1 (stereo not drawn) [Compound 340] | 5 | 0 | 5 | 2 | 1 | 0 | 5 | 3 | 0 | 2 | 2 | 3 | 2 | 5 | 4 | 5 | 2 | 5 | 3 |
